Literature values as cited in patent publication US20240091141A1, “METHODS AND COMPOSITIONS FOR THE ABLATION OF NERVES” (TULAVI THERAPEUTICS, INC., priority 2021, published 2024).

What was measured:
[1] = system: sympathetic, sensory and motor neurons
a range of cell types = conditions: across a range of cell types
[2] = meta-analysis covering over 12,000 patients
sympathetic ganglia cell = conditions: in vitro; 4 ug/ml (10 uM)

In the case of CCO [ethanol], the “concentrations that result in neurolysis” value [1] is listed as “above 50%” and the destruction of neurons ([1]; One-hundred percent ethanol) is listed as “completely destroy the cell bodies and axons”.

For C[C@H](CCCC(C)(C)O)[C@H]1CC[C@H]2[C@@H]3CC=C4C[C@@H](O)CC[C@]4(C)[C@H]3CC[C@]12C [25-OH-cholesterol], the neurotoxicity (a range of cell types) is given as “demonstrated neurotoxicity”.

For hyaluronic acid, the “effect of intraarticular injections” value [2] is given as “either no effect or a “clinically irrelevant effect””.

In the case of Cholesterol oxides, the “time to sympathetic ganglia cell death” value (sympathetic ganglia cell) is listed as no more than 36 h.
